Data on 19 compounds can be found in ChEMBL document CHEMBL5230136, “A review: Biologically active 3,4-heterocycle-fused coumarins” (Eur J Med Chem, 2021).

In general, IC50 refers to the point on the concentration scale where inhibition reaches its midpoint. As a reminder, the MIC is the smallest concentration in the dilution series that meets the test's criterion for growth inhibition.

Converted amounts (≈) assume the structure as drawn.

One data set relates to HCT-15. The experiment in a line: Anticancer activity against human HCT-15 cells assessed as cell growth inhibition. The data set is classed as functional, cell-based.
The subject of data set [1] is HCT-116/VM46. In words: cells. Particulars: Homo sapiens.
A further data set concerns HCT-116. In words: Cytotoxicity against human HCT-116 cells assessed as reversal of multi drug resistance at 1 uM. The data set is classed as functional, cell-based.
In data set [2] the test system is L1210. The experiment in a line: Cytotoxicity against […] cells assessed as reversal of multi drug resistance at 1 uM. The data set is classed as functional, cell-based. Particulars: Mus musculus.
The subject of data set [3] is L1210. In words: Cytotoxicity against mouse L1210 cells assessed as reduction in cell viability. It is filed as functional, cell-based.
For data set [4], the system named is Candida albicans. The experiment in a line: […] activity against Candida albicans assessed as zone of inhibition at 20 mg/ml. It is filed as functional. The note with it: read-out: IZ.
In the next data set the test system is Staphylococcus simulans. The experiment in a line: Antibacterial activity against Staphylococcus simulans assessed as zone of inhibition at 20 mg/ml. The data set is classed as functional. Particulars: read-out: IZ.
In data set [5] the test system is Staphylococcus aureus. The experiment in a line: Antibacterial activity against Staphylococcus aureus assessed as zone of inhibition at 20 mg/ml. The data set is classed as functional. Particulars: read-out: IZ.
The subject of data set [6] is Staphylococcus aureus. In words: Antibacterial activity against Staphylococcus aureus by dilution assay. The data set is classed as functional.
A short description of data set [7]: Inhibition of wild type HIV-1 protease. Details: species or system Human immunodeficiency virus.
The subject of data set [8] is HCT-116/VM46. The experiment in a line: Anticancer activity against Multi drug resistant human HCT-116/VM46 cells assessed as inhibition of cell growth. The data set is classed as functional, cell-based.
A further data set concerns RAW264.7. The experiment in a line: Anti-inflammatory activity against mouse RAW264.7 cells assessed as inhibition of LPS-induced NO production at 50 ug/ml relative to control. The data set is classed as functional. Also noted: scale not given: the % may be the effect or the level left. The note with it: dose 50 µg/ml.
A short description of data set [9]: Inhibition of HIV-1 integrase. Also noted: species or system Human immunodeficiency virus 1.
For data set [10], the system named is Candida albicans. The experiment in a line: Antifungal activity against Candida albicans assessed as reduction in fungal growth. The data set is classed as functional.
The subject of data set [11] is Staphylococcus aureus. The experiment in a line: Antibacterial activity against Staphylococcus aureus ATCC 29213 assessed as reduction in bacterial growth. It is filed as functional.
For data set [12], the target named is Dual specificity tyrosine-phosphorylation-regulated kinase 1A (Homo sapiens, UniProt Q13627). In words: Inhibition of DYRK1A (unknown origin).
Data set [13] can be described thus: Cytotoxicity against human MRC5 cells assessed as reduction in cell viability measured after 72 hrs by MTT assay. The data set is classed as toxicity, cell-based. A general note: Tetrazolium dyes change colour on reduction, which living cells bring about.
Data set [14] relates to Escherichia coli. The experiment in a line: Antibacterial activity against Escherichia coli assessed as bacterial growth inhibition by broth dilution method. The data set is classed as functional. (In broth dilution the organism is exposed to a series of concentrations in liquid medium.)
Another data set has as its system MES-SA. In words: Cytotoxicity against human MES-SA cells assessed as reduction in cell viability incubated for 72 hrs by MTT assay. The data set is classed as functional, cell-based.
Data set [15] deals with Staphylococcus aureus. The experiment in a line: Antibacterial activity against Staphylococcus aureus assessed as zone of inhibition. It is filed as functional.
The subject of a further data set is Penicillium italicum. In words: Antifungal activity against Penicillium italicum assessed as zone of inhibition. The data set is classed as functional.
Data set [16] concerns Escherichia coli. In words: Antibacterial activity against Escherichia coli assessed as zone of inhibition. The data set is classed as functional.
For a further data set, the system named is Pseudomonas aeruginosa. In words: Antibacterial activity against Pseudomonas aeruginosa assessed as zone of inhibition. It is filed as functional.
The next data set has as its system Bacillus cereus. In words: Antibacterial activity against Bacillus cereus assessed as zone of inhibition. It is filed as functional.
In the next data set the test system is Fusarium oxysporum. The experiment in a line: Antifungal activity against Fusarium oxysporum assessed as zone of inhibition. It is filed as functional.
The next data set deals with Klebsiella aerogenes. In words: Antibacterial activity against Enterobacter aerogenes assessed as zone of inhibition. The data set is classed as functional.
The next data set relates to Aspergillus niger. The experiment in a line: Antifungal activity against Aspergillus niger assessed as zone of inhibition. It is filed as functional.
The test system of data set [17] is Bacillus subtilis. The experiment in a line: Antibacterial activity against Bacillus subtilis assessed as zone of inhibition. It is filed as functional.
The subject of data set [18] is Staphylococcus epidermidis. In words: Antibacterial activity against Staphylococcus epidermidis assessed as reduction in bacterial growth. The data set is classed as functional.
Data set [19] in a line: Antioxidant activity assessed as FRAP radical activity by FRAP assay. The data set is classed as functional.
Data set [20] can be described thus: Antioxidant activity assessed as DPPH radical scavenging activity. It is filed as functional. In general terms: The DPPH test is a chemical assay of radical scavenging.
The next data set concerns HepG2. In words: Anticancer activity against human HepG2 cells by MTT assay. The data set is classed as functional, cell-based.
In data set [21] the test system is Escherichia coli. The experiment in a line: Antibacterial activity against Escherichia coli assessed as bacterial growth inhibition. The data set is classed as functional.
For a further data set, the system named is A549. In words: Anticancer activity against human A549 cells assessed as inhibition of cell proliferation measured after 48 hrs by MTT assay. It is filed as functional, cell-based. The note with it: A549, 48 h.
Data set [22] relates to Bacillus subtilis. The experiment in a line: Antibacterial activity against Bacillus subtilis assessed as reduction in bacterial growth. The data set is classed as functional.

`CC(=O)/C=C1\c2c(c3ccccc3oc2=O)OC1(c1ccccc1)N(C)C` (configuration not stated): the IC50 in the data set with HCT-15 is 8 µM.
Consider `O=c1oc2cc(O)c(O)cc2c2c(-c3ccc(O)c(O)c3)cn(CCc3ccc(O)c(O)c3)c12`, for which the IC50 in the data set on HCT-116/VM46 [1] was 60 µM; with HCT-116, 12 µM; in the data set with L1210 [2], 10 µM; in the data set with L1210 [3] it was 10 µM.
Take `Cc1cccc2c1oc(=O)c1cn[nH]c12`: the zone of inhibition at 20000 µg/mL with Candida albicans [4], with Staphylococcus simulans and in the data set with Staphylococcus aureus [5] was 14 mm throughout. This compound also displayed a minimal inhibitory concentration (MIC) in the data set with Staphylococcus aureus [6] of 100 µM (≈ 20 µg/mL).
In data set [7], `COc1ccc(-c2c3c4cc(OC)c(O)cc4oc(=O)c3n3ccc4cc(O)c(OC)cc4c23)cc1O` yielded an IC50 of 8 µM.
Turning to `COc1ccc(CCn2cc(-c3ccc(OC)c(OC)c3)c3c4cc(OC)c(OC)cc4oc(=O)c32)cc1OC`, the results for the IC50 in the data set on HCT-116/VM46 [1], with L1210 [2] and in the data set with HCT-116/VM46 [8] were 40 µM, 50 µM and 40 µM, respectively.
As to `O=C(O)Cc1ccccc1Nc1c(Cl)cccc1Cl` [DICLOFENAC], in the data set on RAW264.7, the Activity came out at 62%.
`COc1ccc(-c2c3c4cc(OC)c(OS(=O)(=O)O)cc4oc(=O)c3n3ccc4cc(OC)c(OC)cc4c23)cc1O` showed an IC50 in [9] of 8 µM.
Take `COc1cccc2cc(-c3ccc4c(=O)oc5c(C)cccc5c4n3)c(=O)oc12`: in the data set with Candida albicans [10], the MIC came out at 1000 µg/mL (≈ 2590 µM).
Regarding `O=c1oc2ccc3ccccc3c2cc1-c1ccc2c(=O)oc3ccc(Cl)cc3c2n1`, in the data set with Staphylococcus aureus [11], the MIC amounted to 62.5 µM (≈ 26.6 µg/mL).
Regarding `O=c1oc2ccc(O)cc2c2c1[nH]c1ccc(O)cc12`, the IC50 in [12] turned out to be 0.067 µM.
Take `COc1cc2c(cc1O)oc(=O)c1c2c(-c2ccc(OC)c(OC)c2)c2c3cc(OC)c(O)cc3ccn21`: the IC50 at 72 h in [13] was above 97 µM.
In the case of GENTAMICIN, the MIC with Escherichia coli [14] was determined as 5 µg/mL.
As for `O=[Se](O)O` [SODIUM SELENITE], the IC50 in the data set on MES-SA worked out at 29 µM.
For `N#CC1=C(N)Oc2c(c(=O)oc3ccccc23)C1c1ccc(Br)cc1` (configuration not stated), the “inhibition zone (IZ)” value with Staphylococcus aureus [15] was found to be 28 mm; in the data set on Penicillium italicum it was 11 mm; in the data set with Escherichia coli [16] it was 20 mm; in the data set with Pseudomonas aeruginosa it was 10 mm; with Bacillus cereus, 19 mm; in the data set with Fusarium oxysporum it was 20 mm. Also, the entries for the “inhibition zone (IZ)” value with Klebsiella aerogenes, in the data set on Aspergillus niger and with Bacillus subtilis [17] were 10 mm, 12 mm and 11 mm, respectively.
In the case of `N=c1c2c(=O)oc3ccccc3c2ccn1-c1ccccn1`, in data set [18], the MIC was 50 µg/mL.
For the compound `O=c1oc2ccccc2c2c1C(c1ccc(Br)cc1O)SCCN2` (stereo in doubt; 203c), the IC50 in data set [19] is 0.186 µM; in [20] it was 290 µM; in the data set with HepG2, 290 µM.
For the compound `CC(=O)c1c(O)c2c(cc(O)c3c(=O)oc4c5cccc(C)c5oc(=O)c4c32)oc1=O`, the MIC in the data set with Escherichia coli [14] came to 100 µg/mL (≈ 238 µM); with Escherichia coli [21], 100 µM (≈ 42 µg/mL); in the data set on Staphylococcus aureus [11], 150 µM (≈ 63 µg/mL).
On to `Cc1ccc2c(c1)C(c1ccccc1)c1c(c3ccccc3oc1=O)N2` (configuration not stated), for which the IC50 in the data set with A549 was found to be 0.05 µM.
On to `CC1=Nc2[nH]n(-c3ccccc3)c(=O)c2C2c3cc(Cl)cc(Cl)c3OC(=O)C12` (configuration not stated), for which the MIC in the data set with Bacillus subtilis [22] is 6.3 µM (≈ 2.61 µg/mL); in [18], 6.3 µM; in the data set on Escherichia coli [21], 6.3 µM (≈ 2.61 µg/mL); in the data set on Staphylococcus aureus [11] it was 25 µM (≈ 10.4 µg/mL).
